In patent US11248246B2, “Beta-glucosidase for producing glucose and laminarioligosaccharide from sea weed” (Korea University Research and Business Foundation, priority 2018, dated 2022):
Entries after “also recorded” stand apart in the source; their conditions may differ.

Columns and labels:
Bgl1B protein = assay: Effect of metal ions on the activity of the Bgl1B protein; type: biochemical, Saccharophagus degradans 2-40^T; conditions: for influence on enzymatic activity / Relative enzymatic activity (%): 10 mM metal ion, 0.1% (w/v) cellobiose; for Relative enzymatic activity (%): relative to no metal ion
[1] = molecular target: T1, Saccharophagus degradans 2-40^T β-glucosidase Bgl1B, recombinant (6 histidine residues at C-terminus), SEQ ID NO: 1 (nucleotide SEQ ID NO: 2) (Saccharophagus degradans, UniProt Q21KX3); assay: Enzymatic reaction rate of Bgl1B for various substrates (Lineweaver-Burk plot); type: biochemical; conditions: for Vmax / kcat: pH 6, 40° C., substrate 0.1-0.4% (w/v)
T1 sequence (Q21KX3 1-444): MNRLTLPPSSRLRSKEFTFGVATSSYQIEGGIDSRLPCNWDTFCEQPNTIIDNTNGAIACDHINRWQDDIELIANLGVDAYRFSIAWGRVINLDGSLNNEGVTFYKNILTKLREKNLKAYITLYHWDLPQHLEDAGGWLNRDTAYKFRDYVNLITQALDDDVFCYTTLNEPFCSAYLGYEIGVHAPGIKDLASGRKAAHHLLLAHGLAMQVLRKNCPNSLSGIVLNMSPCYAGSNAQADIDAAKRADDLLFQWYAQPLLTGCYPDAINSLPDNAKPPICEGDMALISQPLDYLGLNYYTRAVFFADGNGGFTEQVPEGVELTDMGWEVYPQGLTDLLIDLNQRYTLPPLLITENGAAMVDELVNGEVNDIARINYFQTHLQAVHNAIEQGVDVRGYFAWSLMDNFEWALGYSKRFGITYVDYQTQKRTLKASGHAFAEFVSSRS
Protocol: To obtain the genomic DNA of Saccharophagus degradans 2-40^T (ATCC43961), Saccharophagus degradans 2-40^T was cultured in a minimal medium containing 2.3 g of instant ocean sea salt, 20 mM Tris-HCl, 2 g of glucose, 1 g of yeast extract, and 0.5 g of ammonium chloride per 1 L at 30° C. for 12 hours. The genomic DNA was extracted using a commercial DNA isolation kit (Qiagen, Valencia, Calif., USA). The target gene bgl1B was amplified from the genomic DNA by PCR. […] To purify the protein by affinity chromatography, the nucleotide sequence of a gene encoding 6 histidine residues at the C-terminus was added. The PCR product and a pET21α vector were digested with NdeI and NotI, respectively, and ligated to construct a pET21α-Bgl1B plasmid. The plasmid was transformed into Escherichia coli DH5α.
To overexpress the obtained gene, the gene was transformed into a protein-expressing host, Escherichia coli B121 (DE3). The cells were cultured in a Luria-Bertani (LB) broth containing 50 mg/L of ampicillin at 37° C. until absorbance at 600 nm reached 0.6. To induce protein expression, 0.1 mM IPTG was added and the induction temperature was set at 16° C., and a protein was allowed to be overexpressed in a water-soluble form for 16 hours. After culture, centrifugation was performed to recover the cells, the cells were released using a 20 mM Tris-HCl buffer (pH 7.4), and then disrupted by ultrasonication and centrifuged again to obtain a supernatant. The recombinant protein was purified using a HisTrap column (GE Healthcare, Piscataway, USA). The purified protein was concentrated using an Amicon Ultra Centrifugal filter (30,000 molecular weight cut-off; Millipore, Billerica, Mass., USA), and the concentration of the protein was measured using a bicinchoninic acid (BCA) protein assay kit (Thermo Fisher Scientific, San Hose, Calif., USA).
(§1) To confirm the enzymatic reaction rate of the Bgl1B protein for various substrates, the Bgl1B protein was allowed to react with each substrate at various concentrations of 0.1-0.4% (w/v) at pH 6 and 40° C. Vmax, Km, and kcat, which are parameters related to an enzymatic reaction rate, were determined from the Lineweaver-Burk plot.

Novozyme 188 = assay: Enzymatic reaction rate of commercialized enzyme Novozyme 188 for substrates (comparison); type: biochemical; conditions: pH 6, 40° C. (as for Bgl1B)
Protocol: as §1

[2] = substrate: OC[C@H]1O[C@@H](O[C@H]2[C@H](O)[C@@H](CO)OC(O)[C@@H]2O)[C@H](O)[C@@H](O)[C@@H]1O; assay: purified protein, by the assay type; conditions: other: pH 6, 40° C., substrate 0.1-0.4% (w/v)
[3] = substrate: OC[C@H]1O[C@@H](O[C@H]2[C@H]3OC[C@@H]2OC(O)[C@H]3O)[C@H](O)[C@@H](O)[C@H]1O; assay: purified protein, by the assay type; conditions: other: pH 6, 40° C., substrate 0.1-0.4% (w/v)
[4] = substrate: OC[C@H]1O[C@@H](O[C@H]2[C@H](O)[C@@H](O)C(O)O[C@@H]2CO)[C@H](O)[C@@H](O)[C@H]1O; assay: purified protein, by the assay type; conditions: other: pH 6, 40° C., substrate 0.1-0.4% (w/v)
[5] = substrate: OC[C@H]1O[C@@H](O[C@H]2[C@H](O)[C@@H](O)C(O)O[C@@H]2CO)[C@H](O)[C@@H](O)[C@@H]1O; assay: purified protein, by the assay type; conditions: other: pH 6, 40° C., substrate 0.1-0.4% (w/v)
[6] = substrate: OC[C@H]1O[C@@H](OC[C@H]2OC(O)[C@H](O)[C@@H](O)[C@@H]2O)[C@H](O)[C@@H](O)[C@@H]1O; assay: purified protein, by the assay type; conditions: other: pH 6, 40° C., substrate 0.1-0.4% (w/v)

**Q.** With `[Ni+2]` [Ni^2+] as the molecule, how does the “influence on enzymatic activity” value (Bgl1B protein) read?
**A.** does not have a great influence; also recorded: did not have a great influence

**Q.** What about the “Relative enzymatic activity (%)” value (Bgl1B protein) of the same molecule?
**A.** 90.3 ± 2.7%

**Q.** How did the Vmax [1] turn out when `OC[C@H]1O[C@@H](OC[C@H]2OC(O)[C@H](O)[C@@H](O)[C@@H]2O)[C@H](O)[C@@H](O)[C@@H]1O` (some centres unmarked) [Gentiobiose, gentiobiose] was run?
**A.** 1.1 × 10^0 U/mg protein

**Q.** What about the kcat [1] of the same molecule?
**A.** 0.88 s⁻¹

**Q.** `OC[C@H]1O[C@@H](O[C@H]2[C@H](O)[C@@H](O)C(O)O[C@@H]2CO)[C@H](O)[C@@H](O)[C@H]1O` (some centres unmarked) [Lactose, lactose] was tested. Which Vmax [1] did it give?
**A.** 1.0 × 10^0 U/mg protein

**Q.** And the kcat [1]?
**A.** 0.83 s⁻¹

**Q.** What does the source list for `OC[C@H]1O[C@@H](O[C@H]2[C@H]3OC[C@@H]2OC(O)[C@H]3O)[C@H](O)[C@@H](O)[C@H]1O` (some centres unmarked) [Agarobiose, agarobiose]?
**A.** Vmax [1]: 3.1 × 10^−1 U/mg protein; kcat [1]: 0.26 s⁻¹

**Q.** What does the source list for `[Co+2]` [Co^2+]?
**A.** influence on enzymatic activity (Bgl1B protein): does not have a great influence; also recorded: did not have a great influence; Relative enzymatic activity (%) (Bgl1B protein): 95.7 ± 1.6%

**Q.** How did the “Relative enzymatic activity (%)” value (Bgl1B protein) turn out when `[Ca+2]` [Ca^2+] was run?
**A.** 82.0 ± 1.5%

**Q.** `[Cu+2]` [Cu^2+] was tested. Which “Relative enzymatic activity (%)” value (Bgl1B protein) did it give?
**A.** 0.0 ± 0.0%

**Q.** `[Mg+2]` [Mg^2+] was tested. Which “influence on enzymatic activity” value (Bgl1B protein) did it give?
**A.** does not have a great influence; also recorded: did not have a great influence

**Q.** And the “Relative enzymatic activity (%)” value (Bgl1B protein)?
**A.** 98.9 ± 2.3%

**Q.** How did the Km (Novozyme 188) turn out when `OC[C@H]1O[C@@H](O[C@H]2[C@H](O)[C@@H](O)C(O)O[C@@H]2CO)[C@H](O)[C@@H](O)[C@@H]1O` (some centres unmarked) [Cellobiose, cellobiose] was run?
**A.** 3.4 mM

**Q.** And the Vmax (Novozyme 188)?
**A.** 3.9 × 10^0 U/mg protein

**Q.** And the kcat (Novozyme 188)?
**A.** 7.8 × 10^0 s^−1

**Q.** What about the Vmax [1] of the same molecule?
**A.** 1.6 × 10^1 U/mg protein

**Q.** What about the kcat [1] of the same molecule?
**A.** 13 s⁻¹

**Q.** For `[Mn+2]` [Mn^2+], which “Relative enzymatic activity (%)” value (Bgl1B protein) is on record?
**A.** 52.6 ± 2.1%

**Q.** What about the “inhibits enzymatic activity by” value (Bgl1B protein; metal ion, summary statement) of the same molecule?
**A.** about 50%

**Q.** Which “Relative enzymatic activity (%)” value (Bgl1B protein) does the source give for `[Fe+2]` [Fe^2+] here?
**A.** 8.2 ± 0.3%

**Q.** Which results are given for `OC[C@H]1O[C@@H](O[C@H]2[C@H](O)[C@@H](CO)OC(O)[C@@H]2O)[C@H](O)[C@@H](O)[C@@H]1O` (some centres unmarked) [Laminaribiose, laminaribiose]?
**A.** Km (Novozyme 188): 2.5 mM; Vmax (Novozyme 188): 4.2 × 10^−1 U/mg protein; kcat (Novozyme 188): 0.85 s⁻¹; Vmax, fold greater than Novozyme 188 ([1]; Bgl1B compared to Novozyme 188): 259 fold; catalytic efficiency, fold greater than Novozyme 188 ([1]; Bgl1B compared to Novozyme 188): 108 fold; kcat, fold greater than Novozyme 188 ([1]; Bgl1B compared to Novozyme 188): 108 fold; Vmax [1]: 1.1 × 10^2 U/mg protein; kcat [1]: 91 s⁻¹

B1: Saccharophagus degradans 2-40^T β-glucosidase Bgl1B, recombinant (6 histidine residues at C-terminus), SEQ ID NO: 1 (nucleotide SEQ ID NO: 2) (Saccharophagus … (protein)
chain: MNRLTLPPSSRLRSKEFTFGVATSSYQIEGGIDSRLPCNWDTFCEQPNTIIDNTNGAIACDHINRWQDDIELIANLGVDAYRFSIAWGRVINLDGSLNNEGVTFYKNILTKLREKNLKAYITLYHWDLPQHLEDAGGWLNRDTAYKFRDYVNLITQALDDDVFCYTTLNEPFCSAYLGYEIGVHAPGIKDLASGRKAAHHLLLAHGLAMQVLRKNCPNSLSGIVLNMSPCYAGSNAQADIDAAKRADDLLFQWYAQPLLTGCYPDAINSLPDNAKPPICEGDMALISQPLDYLGLNYYTRAVFFADGNGGFTEQVPEGVELTDMGWEVYPQGLTDLLIDLNQRYTLPPLLITENGAAMVDELVNGEVNDIARINYFQTHLQAVHNAIEQGVDVRGYFAWSLMDNFEWALGYSKRFGITYVDYQTQKRTLKASGHAFAEFVSSRS
**Q.** Which Km [2] does the source give for B1 here?
**A.** 0.99 mM

**Q.** What about the Km [3] of the same molecule?
**A.** 69 mM

**Q.** And the Km [4]?
**A.** 20 mM

**Q.** What about the Km [5] of the same molecule?
**A.** 20 mM

**Q.** And the Km [6]?
**A.** 13 mM
